Experimental data: patent publication US10173971B2, “Picolinamides with fungicidal activity” (DOW AGROSCIENCES LLC, priority 2014, dated 2019)
Like-named read-outs stand apart in the source and are kept apart here.

Assays:
Puccinia triticina = assay: Fungicidal activity: wheat brown rust (PUCCRT), wheat seedlings, booth sprayer to run-off or track spray; type: in vivo; conditions: for pest or weed control at 100 ppm: High-Volume Cereal Activity at 100 ppm; for pest or weed control at 121.5 g/ha: Low-Volume Cereal Activity at 121.5 g/H
Protocol: All fungicides were evaluated using the aforementioned method for their activity vs. all target diseases. Wheat leaf blotch and brown rust activity were also evaluated using track spray applications, in which case the fungicides were formulated as EC formulations, containing 0.1% Trycol 5941 in the spray solutions. Wheat plants (variety Yuma) were grown from seed in a greenhouse in 50% mineral soil/50% soil-less Metro mix until the first leaf was fully emerged, with 7-10 seedlings per pot. These plants were inoculated with an aqueous spore suspension of Puccinia triticina either prior to or after fungicide treatments. […] The plants were then transferred to a greenhouse set at 24° C. for disease to develop. Fungicide formulation, application and disease assessment followed the procedures as described in the Example A.

Zymoseptoria tritici = assay: Fungicidal activity: leaf blotch of wheat (SEPTTR), wheat seedlings, booth sprayer to run-off or track spray; type: in vivo; conditions: for pest or weed control at 100 ppm: High-Volume Cereal Activity at 100 ppm; for pest or weed control at 121.5 g/ha: Low-Volume Cereal Activity at 121.5 g/H
Protocol: All fungicides were evaluated using the aforementioned method for their activity vs. all target diseases. Wheat leaf blotch and brown rust activity were also evaluated using track spray applications, in which case the fungicides were formulated as EC formulations, containing 0.1% Trycol 5941 in the spray solutions. Wheat plants (variety Yuma) were grown from seed in a greenhouse in 50% mineral soil/50% soil-less Metro mix until the first leaf was fully emerged, with 7-10 seedlings per pot. These plants were inoculated with an aqueous spore suspension of Zymoseptoria tritici either prior to or after fungicide treatments. After inoculation the plants were kept in 100% relative humidity (one day in a dark dew chamber followed by two to three days in a lighted dew chamber at 20° C.) to permit spores to germinate and infect the leaf. The plants were then transferred to a greenhouse set at 20° C. for disease to develop. When disease symptoms were fully expressed on the 1st leaves of untreated plants, infection levels were assessed on a scale of 0 to 100 percent disease severity. Percent disease control was calculated using the ratio of disease severity on treated plants relative to untreated plants.

[1] = 24 h, 1 Day Protectant, read-out: PUCCRT 1DP
[2] = 72 h, 3 Day Curative, read-out: PUCCRT 3DC
[3] = 24 h, 1 Day Protectant, read-out: SEPTTR 1DP
[4] = 72 h, 3 Day Curative, read-out: SEPTTR 3DC
[5] = 3DC (Day Curative), read-out: SEPTTR 3DC

CCCOC[C@@H](Cc1ccccc1)[C@H](C)OC(=O)[C@H](CC)NC(=O)c1nccc(OC)c1OCOC(C)=O [compound 167]
pest or weed control at 100 ppm (Puccinia triticina; [1]): 80 to 100% | pest or weed control at 121.5 g/ha (Puccinia triticina; [1]): 80 to 100% | pest or weed control at 121.5 g/ha (Puccinia triticina; [2]): 80 to 100% | pest or weed control at 100 ppm (Puccinia triticina; 3DC (Day Curative), read-out: PUCCRT 3DC): 80 to 100% | pest or weed control at 100 ppm (Zymoseptoria tritici; [3]): 80 to 100% | pest or weed control at 121.5 g/ha (Zymoseptoria tritici; [3]): 80 to 100% | pest or weed control at 121.5 g/ha (Zymoseptoria tritici; [4]): 0 to 80% | pest or weed control at 100 ppm (Zymoseptoria tritici; [5]): 80 to 100%

COc1ccnc(C(=O)N[C@@H](C)C(=O)O[C@@H](C)[C@H](Cc2ccc3ccccc3c2)c2ccccc2)c1O [compound 130]
pest or weed control at 100 ppm (Puccinia triticina; [1]): 80 to 100% | pest or weed control at 100 ppm (Zymoseptoria tritici; [3]): 80 to 100% | pest or weed control at 100 ppm (Zymoseptoria tritici; [5]): 0 to 80%

CCCC[C@@H]([C@H](C)OC(=O)[C@H](C)NC(=O)c1nccc(OC)c1OC(=O)O)[C@@H](CC)Oc1ccccc1 [compound 190]
pest or weed control at 121.5 g/ha (Puccinia triticina; [1]): 80 to 100% | pest or weed control at 121.5 g/ha (Puccinia triticina; [2]): 80 to 100% | pest or weed control at 121.5 g/ha (Zymoseptoria tritici; [3]): 80 to 100% | pest or weed control at 121.5 g/ha (Zymoseptoria tritici; [4]): 80 to 100%

COc1ccnc(C(=O)N[C@@H](C)C(=O)O[C@@H](C)[C@H](Cc2ccc(C)cc2)c2ccccc2)c1OCOC(C)=O [compound 221]
pest or weed control at 121.5 g/ha (Puccinia triticina; [1]): 80 to 100% | pest or weed control at 121.5 g/ha (Puccinia triticina; [2]): 0 to 80% | pest or weed control at 121.5 g/ha (Zymoseptoria tritici; [3]): 80 to 100% | pest or weed control at 121.5 g/ha (Zymoseptoria tritici; [4]): 80 to 100%

CC[C@H](Cc1ccccc1)[C@@H](Cc1ccc(F)cc1)[C@H](C)OC(=O)[C@H](C)NC(=O)c1nccc(OC)c1OCOC(C)=O [compound 174]
pest or weed control at 121.5 g/ha (Puccinia triticina; [1]): 80 to 100% | pest or weed control at 121.5 g/ha (Puccinia triticina; [2]): 0 to 80% | pest or weed control at 121.5 g/ha (Zymoseptoria tritici; [3]): 80 to 100% | pest or weed control at 121.5 g/ha (Zymoseptoria tritici; [4]): 0 to 80%

COc1ccc(CC(Cc2ccc(OC)cc2)[C@H](C)OC(=O)[C@H](C)NC(=O)c2nccc(OC)c2OC(C)=O)cc1 [compound 272]
pest or weed control at 121.5 g/ha (Puccinia triticina; [1]): 0 to 80% | pest or weed control at 121.5 g/ha (Puccinia triticina; [2]): 0 to 80% | pest or weed control at 121.5 g/ha (Zymoseptoria tritici; [3]): 80 to 100%

CCOCC(=O)OCOc1c(OC)ccnc1C(=O)N[C@@H](C)C(=O)O[C@@H](C)[C@H](Cc1ccc(F)cc1)C(C)(C)OCc1ccccc1 [compound 235]
pest or weed control at 121.5 g/ha (Puccinia triticina; [1]): 80 to 100% | pest or weed control at 121.5 g/ha (Puccinia triticina; [2]): 0 to 80% | pest or weed control at 121.5 g/ha (Zymoseptoria tritici; [3]): 80 to 100% | pest or weed control at 121.5 g/ha (Zymoseptoria tritici; [4]): 0 to 80%

CCCC[C@@H]([C@H](C)OC(=O)[C@H](C)NC(=O)c1nccc(OC)c1OCOC(C)=O)[C@H](CC)Oc1ccccc1 [compound 188]
pest or weed control at 121.5 g/ha (Puccinia triticina; [1]): 80 to 100% | pest or weed control at 121.5 g/ha (Puccinia triticina; [2]): 80 to 100% | pest or weed control at 121.5 g/ha (Zymoseptoria tritici; [3]): 80 to 100% | pest or weed control at 121.5 g/ha (Zymoseptoria tritici; [4]): 80 to 100%

COc1ccnc(C(=O)N[C@@H](C)C(=O)O[C@@H](C)[C@H](CCC(C)C)c2ccccc2)c1OCOC(C)=O [compound 213]
pest or weed control at 121.5 g/ha (Puccinia triticina; [1]): 80 to 100% | pest or weed control at 121.5 g/ha (Puccinia triticina; [2]): 80 to 100% | pest or weed control at 121.5 g/ha (Zymoseptoria tritici; [3]): 80 to 100% | pest or weed control at 121.5 g/ha (Zymoseptoria tritici; [4]): 80 to 100%

C=C[C@H](Cc1ccc(C(F)(F)F)cc1)[C@@H](Cc1ccc(F)cc1)[C@H](C)OC(=O)[C@H](COC)NC(=O)c1nccc(OC)c1OC(C)=O [compound 178]
pest or weed control at 121.5 g/ha (Puccinia triticina; [1]): 0 to 80% | pest or weed control at 121.5 g/ha (Puccinia triticina; [2]): 0 to 80% | pest or weed control at 121.5 g/ha (Zymoseptoria tritici; [3]): 0 to 80% | pest or weed control at 121.5 g/ha (Zymoseptoria tritici; [4]): 0 to 80%

COc1ccnc(C(=O)N[C@@H](C)C(=O)O[C@@H](C)[C@H](Cc2ccc(C)cc2)c2ccccc2)c1O [compound 128]
pest or weed control at 100 ppm (Puccinia triticina; [1]): 80 to 100% | pest or weed control at 100 ppm (Zymoseptoria tritici; [3]): 80 to 100% | pest or weed control at 100 ppm (Zymoseptoria tritici; [5]): 0 to 80%

CCCO[C@@H](CC)[C@@H](Cc1ccccc1)[C@H](C)OC(=O)C(C)(C)NC(=O)c1nccc(OC)c1O [compound 100]
pest or weed control at 100 ppm (Puccinia triticina; [1]): 0 to 80% | pest or weed control at 100 ppm (Zymoseptoria tritici; [5]): 0 to 80%

COc1ccnc(C(=O)N[C@@H](C)C(=O)O[C@@H](C)[C@H](Cc2ccccc2)C(C)C)c1OCOC(C)=O [compound 206]
pest or weed control at 121.5 g/ha (Puccinia triticina; [1]): 80 to 100% | pest or weed control at 121.5 g/ha (Puccinia triticina; [2]): 80 to 100% | pest or weed control at 121.5 g/ha (Zymoseptoria tritici; [3]): 80 to 100% | pest or weed control at 121.5 g/ha (Zymoseptoria tritici; [4]): 80 to 100%

COC(=O)[C@@H](Cc1ccccc1)[C@H](C)OC(=O)[C@H](C)NC(=O)c1nccc(OC)c1OC(C)=O [compound 186]
pest or weed control at 121.5 g/ha (Zymoseptoria tritici; [3]): 0 to 80%

CCCOC[C@@H](Cc1ccc(OC)cc1)[C@H](C)OC(=O)[C@H](C)NC(=O)c1nccc(OC)c1OCOC(C)=O [compound 256]
pest or weed control at 121.5 g/ha (Puccinia triticina; [1]): 80 to 100% | pest or weed control at 121.5 g/ha (Puccinia triticina; [2]): 80 to 100%

CCOCC(=O)OCOc1c(OC)ccnc1C(=O)N[C@@H](C)C(=O)O[C@@H](C)[C@H](CCC(C)C)c1ccccc1 [compound 215]
pest or weed control at 121.5 g/ha (Puccinia triticina; [1]): 80 to 100% | pest or weed control at 121.5 g/ha (Puccinia triticina; [2]): 80 to 100% | pest or weed control at 121.5 g/ha (Zymoseptoria tritici; [3]): 80 to 100% | pest or weed control at 121.5 g/ha (Zymoseptoria tritici; [4]): 80 to 100%

COc1ccnc(C(=O)N[C@@H](C)C(=O)O[C@@H](C)[C@H](CCC(C)C)c2ccccc2)c1OCOC(=O)C(C)C [compound 214]
pest or weed control at 121.5 g/ha (Puccinia triticina; [1]): 80 to 100% | pest or weed control at 121.5 g/ha (Puccinia triticina; [2]): 80 to 100% | pest or weed control at 121.5 g/ha (Zymoseptoria tritici; [3]): 80 to 100% | pest or weed control at 121.5 g/ha (Zymoseptoria tritici; [4]): 80 to 100%
